Source: US9365572B2, “PI3K and/or mTOR inhibitor” (XUANZHU PHARMA CO., LTD., priority 2012, dated 2016)

Legend:
Glutamate, Kainate = experiment: Radioligand binding assay No. 232700; details: test substance 10 μM; rat
Opiate κ(OP2, KOP) = Opiate κ(OP2, KOP) (Homo sapiens (Human), UniProt P41145); experiment: Radioligand binding assay No. 260210; details: test substance 10 μM, read-out: Inhibitory rate (%), Opiate κ(OP2, KOP)
Interleukin IL-1 = Interleukin IL-1 (Mus musculus (Mouse), UniProt P13504); experiment: Radioligand binding assay No. 243520; details: test substance 10 μM, read-out: Inhibitory rate (%), Interleukin IL-1
[1] = test system: Calcium Channel L-Type, Benzothiazepine; experiment: Radioligand binding assay No. 214510; details: test substance 10 μM; rat
Bradykinin B1 = Bradykinin B1 (Homo sapiens (Human), UniProt P46663); experiment: Radioligand binding assay No. 212510; details: test substance 10 μM, read-out: Inhibitory rate (%), Bradykinin B1
Rolipram = experiment: Radioligand binding assay No. 270000; details: test substance 10 μM; rat
Endothelin ETB = Endothelin ETB (Homo sapiens (Human), UniProt P24530); experiment: Radioligand binding assay No. 224110; details: test substance 10 μM, read-out: Inhibitory rate (%), Endothelin ETB
Opiate μ(OP3, MOP) = Opiate μ(OP3, MOP) (Homo sapiens (Human), UniProt P35372); experiment: Radioligand binding assay No. 260410; details: test substance 10 μM, read-out: Inhibitory rate (%), Opiate μ(OP3, MOP)
Opiate δ1 (OP1, DOP) = Opiate δ1 (OP1, DOP) (Homo sapiens (Human), UniProt P41143); experiment: Radioligand binding assay No. 260130; details: test substance 10 μM, read-out: Inhibitory rate (%), Opiate δ1 (OP1, DOP)
Nicotinic Acetylcholine = experiment: Radioligand binding assay No. 258590; details: test substance 10 μM; Human
Adenosine A2A = Adenosine A2A (Homo sapiens (Human), UniProt P29274); experiment: Radioligand binding assay No. 200610; details: test substance 10 μM, read-out: Inhibitory rate (%), Adenosine A2A
Dopamine D2S = Dopamine D2S (Homo sapiens (Human), UniProt P14416); experiment: Radioligand binding assay No. 219700; details: test substance 10 μM, read-out: Inhibitory rate (%), Dopamine D2S
Adrenergic α1A = Adrenergic α1A (Rattus norvegicus (Rat), UniProt P43140); experiment: Radioligand binding assay No. 203100; details: test substance 10 μM, read-out: Inhibitory rate (%), Adrenergic α1A
Sigmaσ1 = Sigmaσ1 (Homo sapiens (Human), UniProt Q99720); experiment: Radioligand binding assay No. 278110; details: test substance 10 μM, read-out: Inhibitory rate (%), Sigmaσ1
Histamine H2 = Histamine H2 (Homo sapiens (Human), UniProt P25021); experiment: Radioligand binding assay No. 239710; details: test substance 10 μM, read-out: Inhibitory rate (%), Histamine H2
[2] = biological target: Leukotriene, Cysteinyl CysLT1 (Homo sapiens (Human), UniProt Q9Y271); experiment: Radioligand binding assay No. 250460; details: test substance 10 μM, read-out: Inhibitory rate (%), Leukotriene, Cysteinyl CysLT1
ImidazolineI2, Central = experiment: Radioligand binding assay No. 241000; details: test substance 10 μM; rat
SKOV-3 = experiment: In vitro cytological inhibitory activity (XTT); type: cell-based; details: Homo sapiens, SK-OV-3, 72 hrs
Experimental: SKOV-3: Human ovarian cancer cell line;
1. Preparation of agents and compounds:
• 1.1 Preparation of phosphoric acid buffering solution (PBS): 8 g NaCl, 0.2 g KCl, 1.44 g Na2HPO4 and 0.24 g KH2PO4 were weighed and added to 800 mL ultrapure water. The mixture was adjusted to pH=7.4, and ultrapure water was added to the metered volume of IL. Then the autoclaving was conducted for 20 mins. • 1.2 Preparation of XTT detection working solution: 100 mg (2,3-Bis-(2-methoxy-4-nitro-5-sulfophenyl)-2H-tetrazolium-5-carboxanilide); 2,3-bis(2-methoxy-4-nitro-5-sulfophenyl)-5-[(phenylamino)carbonyl]-2H-tetrazolium hydroxide (XTT) powder was weighed, and dissolved under protection from light 300 mL of phenol red-free and serum-free RPMI1640 culture, which had been warmed up to 50° C. The resulting mixture was filtered, packaged and used immediately or in one week. The complete process was conducted under protection from light. • 1.3 Preparation of the test compound • Preparation of the stock solution of the test compound: The test compound powder was dissolved in DMSO in a concentration of 10 mM. • Preparation of the gradiently diluted solution of the test compound: 10 mM of the stock solution of the test compound was successively and gradiently diluted with DMSO by 4 folds for 10 concentrations. […]

Sequence of Interleukin IL-1 (P13504 20-576): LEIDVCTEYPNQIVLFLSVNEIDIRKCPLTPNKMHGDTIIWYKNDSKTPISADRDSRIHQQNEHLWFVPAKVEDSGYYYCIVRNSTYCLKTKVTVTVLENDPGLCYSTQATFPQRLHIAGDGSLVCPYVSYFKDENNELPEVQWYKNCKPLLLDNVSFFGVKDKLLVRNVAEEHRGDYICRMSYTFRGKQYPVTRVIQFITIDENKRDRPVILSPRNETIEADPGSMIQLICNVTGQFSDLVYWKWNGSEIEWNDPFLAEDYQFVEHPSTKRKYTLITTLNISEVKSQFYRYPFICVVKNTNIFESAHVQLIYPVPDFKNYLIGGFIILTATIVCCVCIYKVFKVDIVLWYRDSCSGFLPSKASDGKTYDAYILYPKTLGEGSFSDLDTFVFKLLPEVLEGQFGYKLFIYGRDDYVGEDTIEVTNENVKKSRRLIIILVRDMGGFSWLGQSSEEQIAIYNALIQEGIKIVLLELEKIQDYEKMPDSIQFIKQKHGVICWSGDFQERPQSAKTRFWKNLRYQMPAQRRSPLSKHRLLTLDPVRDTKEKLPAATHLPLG
Sequence of Sigmaσ1 (Q99720 whole entry): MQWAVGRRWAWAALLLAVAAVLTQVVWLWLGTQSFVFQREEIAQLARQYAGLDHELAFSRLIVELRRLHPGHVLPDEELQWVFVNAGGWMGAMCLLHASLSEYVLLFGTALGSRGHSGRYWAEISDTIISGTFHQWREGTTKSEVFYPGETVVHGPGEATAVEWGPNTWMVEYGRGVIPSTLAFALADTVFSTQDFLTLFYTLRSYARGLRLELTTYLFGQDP
Sequence of Endothelin ETB (P24530 27-442): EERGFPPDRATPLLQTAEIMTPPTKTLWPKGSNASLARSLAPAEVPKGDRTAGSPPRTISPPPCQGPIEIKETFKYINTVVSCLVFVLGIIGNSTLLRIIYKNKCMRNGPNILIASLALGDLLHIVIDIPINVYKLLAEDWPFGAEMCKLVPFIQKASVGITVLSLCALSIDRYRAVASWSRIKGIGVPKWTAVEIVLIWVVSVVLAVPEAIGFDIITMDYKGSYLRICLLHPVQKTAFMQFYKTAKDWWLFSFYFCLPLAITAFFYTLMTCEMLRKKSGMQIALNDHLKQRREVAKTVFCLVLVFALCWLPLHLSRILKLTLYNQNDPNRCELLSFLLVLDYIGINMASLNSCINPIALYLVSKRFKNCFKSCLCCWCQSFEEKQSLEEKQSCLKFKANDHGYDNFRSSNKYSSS
Sequence of Opiate μ(OP3, MOP) (P35372 whole entry): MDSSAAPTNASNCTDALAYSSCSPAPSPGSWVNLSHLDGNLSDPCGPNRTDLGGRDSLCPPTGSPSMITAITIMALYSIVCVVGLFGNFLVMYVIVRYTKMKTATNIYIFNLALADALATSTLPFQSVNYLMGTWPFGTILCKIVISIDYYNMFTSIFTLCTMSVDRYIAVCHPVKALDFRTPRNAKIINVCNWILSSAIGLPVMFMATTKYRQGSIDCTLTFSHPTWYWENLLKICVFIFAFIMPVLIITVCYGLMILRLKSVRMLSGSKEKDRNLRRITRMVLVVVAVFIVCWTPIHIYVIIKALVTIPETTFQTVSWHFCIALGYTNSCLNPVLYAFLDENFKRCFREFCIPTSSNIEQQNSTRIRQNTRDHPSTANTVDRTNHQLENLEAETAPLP
Sequence of Leukotriene, Cysteinyl CysLT1 (Q9Y271 whole entry): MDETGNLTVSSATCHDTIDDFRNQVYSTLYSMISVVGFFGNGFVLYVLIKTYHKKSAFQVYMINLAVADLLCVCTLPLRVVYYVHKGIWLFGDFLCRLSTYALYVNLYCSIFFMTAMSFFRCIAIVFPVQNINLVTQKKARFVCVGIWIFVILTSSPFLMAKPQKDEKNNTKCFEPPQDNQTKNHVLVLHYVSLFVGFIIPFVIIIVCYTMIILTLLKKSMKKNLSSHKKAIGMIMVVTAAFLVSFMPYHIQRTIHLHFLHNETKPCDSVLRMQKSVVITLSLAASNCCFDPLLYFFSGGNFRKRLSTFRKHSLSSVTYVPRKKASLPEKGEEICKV
Sequence of Adrenergic α1A (P43140 whole entry): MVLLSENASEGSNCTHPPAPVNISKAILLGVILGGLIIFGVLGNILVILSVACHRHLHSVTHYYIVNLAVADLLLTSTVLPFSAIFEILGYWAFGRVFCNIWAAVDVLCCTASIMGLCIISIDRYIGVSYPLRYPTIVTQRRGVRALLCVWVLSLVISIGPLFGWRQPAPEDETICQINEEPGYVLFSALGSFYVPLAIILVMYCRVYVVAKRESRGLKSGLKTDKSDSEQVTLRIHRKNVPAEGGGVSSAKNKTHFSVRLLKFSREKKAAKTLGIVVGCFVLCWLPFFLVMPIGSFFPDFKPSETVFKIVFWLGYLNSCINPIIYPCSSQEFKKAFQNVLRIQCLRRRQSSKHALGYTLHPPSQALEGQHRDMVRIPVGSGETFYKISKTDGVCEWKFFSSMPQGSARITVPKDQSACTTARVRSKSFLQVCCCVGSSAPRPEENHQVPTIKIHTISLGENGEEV
Sequence of Bradykinin B1 (P46663 whole entry): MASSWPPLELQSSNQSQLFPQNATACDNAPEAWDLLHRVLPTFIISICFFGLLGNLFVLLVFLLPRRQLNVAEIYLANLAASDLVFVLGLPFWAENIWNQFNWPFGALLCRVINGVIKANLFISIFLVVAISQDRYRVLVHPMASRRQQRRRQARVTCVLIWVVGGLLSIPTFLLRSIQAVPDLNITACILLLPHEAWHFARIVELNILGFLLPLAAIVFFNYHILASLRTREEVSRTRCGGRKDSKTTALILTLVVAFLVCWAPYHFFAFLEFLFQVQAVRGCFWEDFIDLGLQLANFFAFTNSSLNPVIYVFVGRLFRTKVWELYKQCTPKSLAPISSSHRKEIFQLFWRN
Sequence of Histamine H2 (P25021 whole entry): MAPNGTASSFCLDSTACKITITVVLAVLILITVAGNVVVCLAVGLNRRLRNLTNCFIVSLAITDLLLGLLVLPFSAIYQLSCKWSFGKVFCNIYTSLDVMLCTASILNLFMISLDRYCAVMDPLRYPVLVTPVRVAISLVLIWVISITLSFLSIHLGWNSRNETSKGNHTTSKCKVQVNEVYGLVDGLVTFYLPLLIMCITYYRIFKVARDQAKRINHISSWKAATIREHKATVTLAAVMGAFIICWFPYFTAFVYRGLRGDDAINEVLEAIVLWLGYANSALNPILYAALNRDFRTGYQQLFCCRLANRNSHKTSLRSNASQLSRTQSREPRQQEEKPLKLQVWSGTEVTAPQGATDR
Sequence of Opiate κ(OP2, KOP) (P41145 whole entry): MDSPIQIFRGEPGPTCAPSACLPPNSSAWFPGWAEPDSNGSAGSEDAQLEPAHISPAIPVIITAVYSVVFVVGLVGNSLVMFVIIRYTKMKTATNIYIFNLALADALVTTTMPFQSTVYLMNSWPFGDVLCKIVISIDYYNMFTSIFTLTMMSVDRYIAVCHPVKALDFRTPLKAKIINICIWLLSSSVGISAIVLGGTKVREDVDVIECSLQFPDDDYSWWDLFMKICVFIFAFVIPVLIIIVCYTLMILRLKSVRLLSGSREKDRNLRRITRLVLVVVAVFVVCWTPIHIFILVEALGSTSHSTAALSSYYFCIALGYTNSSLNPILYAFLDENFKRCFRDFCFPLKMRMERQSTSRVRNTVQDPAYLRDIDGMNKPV
Sequence of Adenosine A2A (P29274 whole entry): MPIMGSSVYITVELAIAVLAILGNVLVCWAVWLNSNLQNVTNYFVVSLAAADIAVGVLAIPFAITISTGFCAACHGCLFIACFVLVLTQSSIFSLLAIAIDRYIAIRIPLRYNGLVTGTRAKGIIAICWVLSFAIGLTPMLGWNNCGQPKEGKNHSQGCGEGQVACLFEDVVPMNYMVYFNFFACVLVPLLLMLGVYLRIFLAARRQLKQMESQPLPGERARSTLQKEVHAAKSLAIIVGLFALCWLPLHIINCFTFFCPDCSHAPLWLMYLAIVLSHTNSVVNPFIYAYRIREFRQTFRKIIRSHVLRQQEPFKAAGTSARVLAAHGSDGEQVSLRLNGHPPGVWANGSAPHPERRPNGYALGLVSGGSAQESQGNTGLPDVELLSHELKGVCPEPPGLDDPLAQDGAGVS
Sequence of Dopamine D2S (P14416 other isoform, or with tags, fused parts or gaps): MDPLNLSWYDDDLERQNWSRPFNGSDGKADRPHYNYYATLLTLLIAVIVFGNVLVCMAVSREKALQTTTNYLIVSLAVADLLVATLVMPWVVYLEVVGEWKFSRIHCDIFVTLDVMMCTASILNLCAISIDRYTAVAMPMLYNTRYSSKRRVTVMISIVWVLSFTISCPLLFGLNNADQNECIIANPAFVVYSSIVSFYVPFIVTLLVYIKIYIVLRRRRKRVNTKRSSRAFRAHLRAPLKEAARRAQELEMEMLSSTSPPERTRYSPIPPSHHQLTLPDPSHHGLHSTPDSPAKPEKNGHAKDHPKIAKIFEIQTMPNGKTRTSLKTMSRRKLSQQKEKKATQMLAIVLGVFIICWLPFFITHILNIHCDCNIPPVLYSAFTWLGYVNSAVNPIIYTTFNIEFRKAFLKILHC
Sequence of Opiate δ1 (OP1, DOP) (P41143 whole entry): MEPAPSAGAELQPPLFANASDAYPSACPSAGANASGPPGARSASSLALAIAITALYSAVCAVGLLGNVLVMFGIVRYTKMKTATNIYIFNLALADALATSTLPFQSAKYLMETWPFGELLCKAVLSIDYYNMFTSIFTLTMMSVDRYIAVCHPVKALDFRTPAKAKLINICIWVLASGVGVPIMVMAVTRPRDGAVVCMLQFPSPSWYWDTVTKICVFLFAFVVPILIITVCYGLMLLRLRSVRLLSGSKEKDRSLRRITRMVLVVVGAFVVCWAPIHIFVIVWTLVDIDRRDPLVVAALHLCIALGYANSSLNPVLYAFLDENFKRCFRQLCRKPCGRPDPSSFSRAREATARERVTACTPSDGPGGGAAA

| Compound | Inhibitory rate (%), Glutamate, Kainate (Glutamate, Kainate) [%] | inhibition at 10 µM (Opiate κ(OP2, KOP)) [%] | inhibition at 10 µM (Interleukin IL-1) [%] | Inhibitory rate (%), Calcium Channel L-Type, Benzothiazepine [1] [%] | inhibition at 10 µM (Bradykinin B1) [%] | Inhibitory rate (%), Rolipram (Rolipram) [%] | inhibition at 10 µM (Endothelin ETB) [%] | inhibition at 10 µM (Opiate μ(OP3, MOP)) [%] | inhibition at 10 µM (Opiate δ1 (OP1, DOP)) [%] | Inhibitory rate (%), Nicotinic Acetylcholine (Nicotinic Acetylcholine) [%] | inhibition at 10 µM (Adenosine A2A) [%] | inhibition at 10 µM (Dopamine D2S) [%] | inhibition at 10 µM (Adrenergic α1A) [%] | inhibition at 10 µM (Sigmaσ1) [%] | inhibition at 10 µM (Histamine H2) [%] | inhibition at 10 µM [2] [%] | Inhibitory rate (%), ImidazolineI2, Central (ImidazolineI2, Central) [%] | IC50 (SKOV-3) [nM] |
| --- | --- | --- | --- | --- | --- | --- | --- | --- | --- | --- | --- | --- | --- | --- | --- | --- | --- | --- |
| Nc1ccc(-c2ccc3ncc4c(=O)[nH]c(=O)n(-c5cccc(C(F)(F)F)c5)c4c3n2)cn1 [Compound 5, 9-(6-aminopyridin-3-yl)-1-(3-(trifluoromethyl)phenyl)pyrimido[5,4-c][1,5]naphthyridine-2,4(1H,3H)-dione] | 35 | 10 | 11 | 15 | 0 | 20 | 7 | 2 | 4 | 7 | 0 | 14 | 13 | 13 | -2 | -1 | 0 | – |
| O=c1[nH]c(=O)n(-c2cccc(C(F)(F)F)c2)c2c1cnc1ccc(-c3cnc4[nH]ccc4c3)nc12 [Compound 30, 9-(1H-pyrrolo[2,3-b]pyridin-5-yl)-1-(3-(trifluoromethyl)phenyl)pyrimido[5,4-c][1,5]naphthyridine-2,4(1H,3H)-dione] | – | – | – | – | – | – | – | – | – | – | – | – | – | – | – | – | – | 57.2 |
